Measurements: ChEMBL document CHEMBL1150370, “Pestaloficiols A-E, bioactive cyclopropane derivatives from the plant endophytic fungus Pestalotiopsis fici” (Bioorg Med Chem, 2008)
Counter-ions that a name gives are not always drawn.

Legend:
[1] = test system: Human immunodeficiency virus 1; experiment: Antiviral activity against HIV1 in human C8116 cells assessed as reduction of p24 protein level after 4 days by ELISA; type: functional, organism-based; details: Human immunodeficiency virus 1, C8116, 96 h
[2] = Cytotoxicity against human C8116 cells after 4 days by MTT assay; type: cell-based

Row | EC50 [1] | Structure (SMILES) | CC50 at 96 h [2]
1 | 0.00881 µM | CC(C)(C)NC(=O)[C@@H]1CN(Cc2cccnc2)CCN1C[C@@H](O)C[C@@H](Cc1ccccc1)C(=O)N[C@H]1c2ccccc2C[C@H]1O [INDINAVIR SULFATE] | 
2 | 26 µM | CC1(C)CC(=O)C2=C(O1)[C@@]13C[C@@H]1C(C)(C)O[C@H]3[C@@H](O)C2 [PESTALOFICIOL A] | > 200 µM
3 | 26 µM | CC1(C)CC(=O)C2=C(O1)[C@@]1(C[C@H]1C(C)(C)O)[C@@H](O)[C@@H](O)C2 [PESTALOFICIOL D] | > 200 µM
4 | 26 µM | CC1(C)CC(=O)C2=C(O1)[C@]1(C[C@@H]1C(C)(C)O)[C@@H](O)[C@@H](O)C2 [PESTALOFICIOL B] | > 200 µM
